Data published in patent publication US11690803B2, “Tumor pH-shiftable coating and the nucleus-directed nanoparticles facilitate the targeted chemotherapy and gene therapy against multiple cancers and use thereof” (National Yang Ming Chiao Tung University, priority 2019, dated 2023).

What was measured:
[1] = Biosafety evaluation by serum biochemical tests; type: in vivo; conditions: tumor-bearing mice, 48 h after last treatment
Procedure: Tumor-bearing mice were treated as described above. Blood samples were taken from the orbital sinus of mice at 48 h after the final injection. The harvested samples were put at 37° C. to induce the clotting reaction and centrifuged for 15 min. The resultant serum samples were stored at −80° C. until further analysis. The functions of liver, kidney and heart were examined by detecting the serum levels of glutamate pyruvate transaminase (GPT), creatinine (CRE), and creatine kinase-MB (CK-MB) using the corresponding activity assay kits (Fujifilm, Tokyo, Japan) according to the manufacturer's instruction using a clinical dry chemistry analyzer (Fuji Dri-Chem 7000V, Fujifilm Corporation, Tokyo, Japan).
Data shown indicate the mean±SD of four experiments.

RBCs from rat = test: Hemolysis assay; type: cell-based; conditions: 37° C., 24 h, Triton X as positive control
Procedure: 7×10^7 RBCs from rat were separated by centrifugation of whole blood. The supernatant containing plasma and platelets were removed. The pellets were washed by PBS until the supernatant was clear. Different formulations were diluted to a required concentration and added to the tubes containing 1 mL diluted RBCs. The cell suspension was mixed gently and incubated at 37° C. for 24 h. Triton X-100 was served as a positive control. Hemoglobin released from RBCs was measured spectrophotometrically. The concentration of the formed product was measured at 540 nm using an ELISA reader (TECAN, Mannedorf, Switzerland) to qualify the toxicity of liposomes to RBCs.

## O=C1[O][Pt]2([NH][C@@H]3CCCC[C@H]3[NH]2)[O]C1=O [Oxa, oxaliplatin]
[1]
  Serum levels of GPT or GOT, CRE, and CK-MB or LDH: remarkably escalated

## Triton X-100
RBCs from rat
  Hemolysis: 100%
